24 molecules from patent US5631222A, “Endothelin-antagonizing peptide” (Kyowa Hakko Kogyo Co., Ltd., priority 1993, dated 1997) can be followed below.

Positions of bridges follow the written chain, without caps; N, C: chain ends. Non-standard residues stand in square brackets, D forms with d. Residues, ends and D or L forms follow the SMILES beside them. 2Thi = N[C@@H](Cc1cccs1)C(=O)O; Cha = N[C@@H](CC1CCCCC1)C(=O)O

The target of one test is T1, endothelin receptor (Bos taurus, UniProt P28088).
T1 construct: the suspension was used as a membrane fraction liquid; from tissue; host or cells: bovine cerebellum membrane fraction
T1 sequence (P28088 27-441): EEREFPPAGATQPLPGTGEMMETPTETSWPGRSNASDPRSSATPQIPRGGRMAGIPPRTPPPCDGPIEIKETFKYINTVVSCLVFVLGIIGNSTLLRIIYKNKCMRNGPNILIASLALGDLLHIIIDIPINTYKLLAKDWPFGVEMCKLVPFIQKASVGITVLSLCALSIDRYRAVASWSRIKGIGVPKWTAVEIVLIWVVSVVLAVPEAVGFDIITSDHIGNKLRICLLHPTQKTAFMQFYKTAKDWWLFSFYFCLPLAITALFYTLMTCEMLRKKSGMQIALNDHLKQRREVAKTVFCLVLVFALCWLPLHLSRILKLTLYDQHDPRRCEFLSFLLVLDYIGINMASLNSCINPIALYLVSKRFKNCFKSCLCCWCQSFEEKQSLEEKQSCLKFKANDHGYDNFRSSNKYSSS
In words: Endothelin receptor-antagonizing activity: inhibition of 125I-endothelin-1 binding to bovine cerebellum membrane fraction. The following applies: 125I-Endothelin-1, bovine cerebellum membrane fraction, 25° C. for 2 hours; read-out: IC50: Concentration causing 50% inhibition of endothelin1 binding. The protocol:
Bovine cerebellum tissue was homogenized at 4° C. by using POLYTRON (type PT10/35, manufactured by Kinematic Gmbh Co.) in a buffer solution A (1 mM NaHCO3, 5 mM ethylenediaminetetraacetic acid, 5 μg/ml leupeptin, 5 μg/ml pepstatin A, 40 μM phenylmethylsulfonyl fluoride, pH 8.3).
The obtained suspension was centrifuged for 10 minutes at 8,000 G and 4° C., and the resulting supernatant was centrifuged for 60 minutes at 40,000 G and 4° C. to obtain pellets. The obtained pellets were suspended in a buffer solution A and again centrifuged for 60 minutes at 40,000 G and 4° C. The resulting solid substance was prepared as a suspension containing 2 mg/ml of protein, and the suspension was used as a membrane fraction liquid. […] These mixtures were incubated at 25° C. for 2 hours, and then filtered with a GF/B glass filter (produced by Whatman Co.). […] The inhibition ratio against endothelin receptor binding activity was calculated according to the following equation:
Inhibition ratio (%)=(C-A/C-B)×100
B: Radioactivity in the presence of unlabelled endothelin-1
C: Radioactivity in the absence of both of the compound shown in Table 2 and unlabelled endothelin-1
As to `CC[C@H](C)[C@H](NC(=O)[C@H](CC1CCCCC1)NC(=O)[C@@H](NC(=O)[C@H](CC(C)C)NC(=O)[C@H](Cc1c[nH]cn1)NC(=O)[C@H](C)NC(=O)[C@H](Cc1ccccc1)NC(=O)[C@H](Cc1ccc(O)cc1)NC(=O)[C@@H](NC(=O)[C@H](Cc1c[nH]c2ccccc12)NC(=O)[C@H](CC(=O)O)NC(=O)[C@@H]1CCCN1C(=O)[C@H](C)NC(=O)[C@@H](NC(=O)CNC(=O)[C@H](Cc1c[nH]cn1)NC(=O)[C@H](Cc1c[nH]c2ccccc12)NC(=O)[C@H](CC(N)=O)NC(=O)CN)[C@@H](C)O)C(C)C)[C@@H](C)O)C(=O)N[C@@H](Cc1c[nH]c2ccccc12)C(=O)O` [Compound 14, HGlyAsnTrpHisGlyThrAlaProAspTrpValTyrPheAlaHisLeuThrChaIleTrpOH] (H-GNWHGTAPDWVYFAHLT[Cha]IW-OH), the IC50 was 12 nM.
On the same count and under the same terms, as for `CC[C@H](C)[C@H](NC(=O)[C@H](Cc1cccs1)NC(=O)[C@@H](NC(=O)[C@H](CC(C)C)NC(=O)[C@H](Cc1c[nH]cn1)NC(=O)[C@H](C)NC(=O)[C@H](Cc1ccccc1)NC(=O)[C@H](Cc1ccc(O)cc1)NC(=O)[C@@H](NC(=O)[C@H](Cc1c[nH]c2ccccc12)NC(=O)[C@H](CC(=O)O)NC(=O)[C@@H]1CCCN1C(=O)[C@H](C)NC(=O)[C@@H](NC(=O)CNC(=O)[C@H](Cc1c[nH]cn1)NC(=O)[C@H](Cc1c[nH]c2ccccc12)NC(=O)[C@H](CC(N)=O)NC(=O)CN)[C@@H](C)O)C(C)C)[C@@H](C)O)C(=O)N[C@@H](Cc1c[nH]c2ccccc12)C(=O)O` [Compound 17, HGlyAsnTrpHisGlyThrAlaProAspTrpValTyrPheAlaHisLeuThrThiIleTrpOH] (H-GNWHGTAPDWVYFAHLT[2Thi]IW-OH), the figure is 0.12 nM.
Same read-out and setting: as for `CC[C@H](C)[C@H](NC(=O)[C@H](CC(=O)O)NC(=O)[C@H](CC(C)C)NC(=O)[C@H](Cc1c[nH]cn1)NC(=O)[C@H](C)NC(=O)[C@H](Cc1ccccc1)NC(=O)[C@H](Cc1ccc(O)cc1)NC(=O)[C@@H](NC(=O)[C@H](Cc1c[nH]c2ccccc12)NC(=O)[C@@H]1CC(=O)NCC(=O)N[C@@H](Cc2ccc(O)cc2)C(=O)N2CCC[C@H]2C(=O)N[C@@H](Cc2c[nH]c3ccccc23)C(=O)N[C@@H](Cc2c[nH]c3ccccc23)C(=O)N[C@@H](CC(N)=O)C(=O)N[C@@H](Cc2ccc(O)cc2)C(=O)N[C@@H](CCCNC(=N)N)C(=O)N1)C(C)C)C(=O)N[C@H](C(=O)N[C@@H](Cc1c[nH]c2ccccc12)C(=O)O)[C@@H](C)CC` [Compound 52] (GYPWWNYRDWVYFAHLDIIW-OH; lactam N-9), the figure is 19 nM; as for `CC[C@H](C)[C@H](NC(=O)[C@H](CC(=O)O)NC(=O)[C@H](CC(C)C)NC(=O)[C@H](Cc1c[nH]cn1)NC(=O)[C@H](C)NC(=O)[C@H](Cc1ccccc1)NC(=O)[C@H](Cc1ccc(O)cc1)NC(=O)[C@@H](NC(=O)[C@H](Cc1c[nH]c2ccccc12)NC(=O)[C@@H]1CC(=O)NCC(=O)N[C@@H](CO)C(=O)N[C@@H](C)C(=O)N[C@@H](C)C(=O)N[C@@H](C(C)C)C(=O)N[C@@H](Cc2ccc(O)cc2)C(=O)N[C@@H](Cc2ccccc2)C(=O)N1)C(C)C)C(=O)N[C@H](C(=O)N[C@@H](Cc1c[nH]c2ccccc12)C(=O)O)[C@@H](C)CC` [Compound 53] (GSAAVYFDWVYFAHLDIIW-OH; lactam N-8), 2.4 nM.
On the same count and under the same terms, as for “H-GDWKGTSPDWVYFAHLDIIW-OH [Compound 6, HGlyAspTrpLysGlyThrSerProAspTrpValTyrPheAlaHisLeuAsplleIleTrpOH]”, the figure is 0.11 nM; as for H-GNWHGGAPDWVYFAHLDIIW-OH [Compound 3], 0.064 nM.
H-GNWHGTAADWVYFAHLSMIW-OH [Compound 46]: the IC50 amounted to 0.8 nM.
Regarding “H-GNWHGTAPDAVYFAHLDIIW-OH [Compound 4, HGlyAsnTrPHisGlyThrAlaProAspAlaValTyrPheAlaHisLeuAspIleIleTrpOH]”, the IC50 amounted to 0.22 nM.
As for “H-GNWHGTAPDWFAHLDIIW-OH [Compound 11, HGlyAsnTrpHisGlyThrAlaProAspTrpPheAlaHisLeuAspIleIleTrpOH]”, the IC50 amounted to 6.1 nM.
Same read-out and setting: as for H-GNWHGTAPDWPYFAHLDIIW-OH [Compound 47], the figure is 4.2 nM.
Still for that read-out and setting: as for H-GNWHGTAPDWVYFAHLDIIF-OH [Compound 5], the figure is 11 nM; as for H-GNWHGTAPDWVYFAHLDLIW-OH [Compound 16], 5.4 nM; as for H-GNWHGTAPDWVYFAHLEIIW-OH [Compound 43], 17 nM.
The same measure, in the same setting: as for H-GNWHGTAPDWVYFAHLNYIW-OH [Compound 20], the figure is 12 nM.
Take H-GNWHGTAPDWVYFAHLSMIW-OH [Compound 21]: the IC50 came to 0.96 nM.
In the case of H-GNWHGTAPDWVYFAHLTLIW-OH [Compound 13], the IC50 was 2.9 nM.
Still for that read-out and setting: as for H-GNWHGTAPDWVYFAHLTMIW-OH [Compound 18], the figure is 1.7 nM; as for H-GNWHGTAPDWVYFAHLTYIW-OH [Compound 19], 1.2 nM; as for “H-GNWHGTAPDWYFAHLDIIW-OH [Compound 10, HGlyAsnTrpHisGlyThrAlaProAspTrpTyrPheAlaHisLeuAspIleIleTrpOH]”, 0.57 nM.
The same measure, in the same setting: as for “H-GNWHTTAPDWVYFAHLDIIW-OH [Compound 2, HGlyAsnTrpHisThrThrAlaProAspTrpValTyrPheAlaHisLeuAspIleleTrpOH]”, the figure is 0.061 nM.
“H-HGTAPDWVYFAHLDIIW-OH [Compound 9, HHisGlyThrAlaProAspTrpValTyrPheAlaHisLeuAspIleIleTrpOH]”: the IC50 was found to be 0.088 nM.
On the same count and under the same terms, as for “H-NWHGTAPDWVYFAHLDIIW-OH [Compound 7, HAsnTrpHisGlyThrAlaProAspTrpValTyrPheAlaHisLeuAspIleIleTrpOH]”, the figure is 0.1 nM; as for “H-VYFSHLDIIW-OH [Compound w, H-Val-Tyr-Phe-Ser-His-Leu-Asp-Ile-Ile-Trp-OH, reference compound]”, over 1000 nM; as for “H-WHGTAPDWVYFAHLDIIW-OH [Compound 8, HTrpHisGlyThrAlaProAspTrpValTyrPheAlaHisLeuAspIleIleTrpOH]”, 0.076 nM.

Another test deals with ET-1 contraction of rat thoracic aorta ring. In words: Inhibitory effect on ET-1 contraction (ring specimen of extracted rat thoracic aorta). The following applies: compound 10^-7 M, ET-1 3×10^-9 M, Sprague-Dawley rat thoracic aorta ring, tension relative to norepinephrine maximum. As to the method:
Test Example 2: Inhibitory Effect On ET-1 Contraction (ring specimen of extracted rat thoracic aorta)
Male Sprague-Dawley rats (Slc. 450-550 g) were anesthetized by intravenous injection of 50 mg/kg of sodium pentobarbital (Nembutal™, Dynabot), and the heads thereof were then incised to die by bleeding. The breasts of the rats were then incised to extract the thoracic aortas therefrom. After the connective tissue which adhered to the blood vessels were removed in a nutrient solution, the blood vessels were cut into rings (3-4 mm), and two metallic holders (one of which was fixed to a support rod) were passed through the blood vessel to prepare a specimen. One end of the holder was mounted on a tension transducer (TB-611T, produced by Nihon Koden) through silk yarn, and the specimen was suspended in a Magnus' tube containing a nutrient solution. Resting tension (1.5 g) was applied to the specimen, and the nutrient solution was replaced several times until the tension was stabilized. Norepinephrine [(±) hydrochloride, Sigma] (10-20 μM) was then added, and the tension generated by contraction of the specimen was measured to determine the maximum value of the tension. The tension generated was detected by the tension transducer, amplified by a pressure strain amplifier (AP-621G, produced by Nihon Koden) and then recorded by a pen recorder (TYPE3066, YOKOGAWA). After the specimen was washed several times to remove Norepinephrine, each of the compounds shown in Table 3 which was dissolved in distilled water was added to the nutrient solution so that the concentration thereof was 10^-7 M, or only distilled water was added thereto in the same volume. […] After the specimens were allowed to stand for 10 minutes, ET-1 was successively added to the nutrient solutions so that the concentration thereof was 3×10^-9 M, and the tension of each of the specimens was measured. The relative value to the maximum tension previously determined was calculated, and the inhibitory effect (% inhibition) on contraction due to ET-1 was determined according to the following equation. […]
Take `CC[C@H](C)[C@H](NC(=O)[C@H](CC1CCCCC1)NC(=O)[C@@H](NC(=O)[C@H](CC(C)C)NC(=O)[C@H](Cc1c[nH]cn1)NC(=O)[C@H](C)NC(=O)[C@H](Cc1ccccc1)NC(=O)[C@H](Cc1ccc(O)cc1)NC(=O)[C@@H](NC(=O)[C@H](Cc1c[nH]c2ccccc12)NC(=O)[C@H](CC(=O)O)NC(=O)[C@@H]1CCCN1C(=O)[C@H](C)NC(=O)[C@@H](NC(=O)CNC(=O)[C@H](Cc1c[nH]cn1)NC(=O)[C@H](Cc1c[nH]c2ccccc12)NC(=O)[C@H](CC(N)=O)NC(=O)CN)[C@@H](C)O)C(C)C)[C@@H](C)O)C(=O)N[C@@H](Cc1c[nH]c2ccccc12)C(=O)O` [Compound 14, HGlyAsnTrpHisGlyThrAlaProAspTrpValTyrPheAlaHisLeuThrChaIleTrpOH] (H-GNWHGTAPDWVYFAHLT[Cha]IW-OH): the “% inhibition of contraction due to ET-1” value is reported as 47.0%.
The same measure, in the same setting: as for `CC[C@H](C)[C@H](NC(=O)[C@H](Cc1cccs1)NC(=O)[C@@H](NC(=O)[C@H](CC(C)C)NC(=O)[C@H](Cc1c[nH]cn1)NC(=O)[C@H](C)NC(=O)[C@H](Cc1ccccc1)NC(=O)[C@H](Cc1ccc(O)cc1)NC(=O)[C@@H](NC(=O)[C@H](Cc1c[nH]c2ccccc12)NC(=O)[C@H](CC(=O)O)NC(=O)[C@@H]1CCCN1C(=O)[C@H](C)NC(=O)[C@@H](NC(=O)CNC(=O)[C@H](Cc1c[nH]cn1)NC(=O)[C@H](Cc1c[nH]c2ccccc12)NC(=O)[C@H](CC(N)=O)NC(=O)CN)[C@@H](C)O)C(C)C)[C@@H](C)O)C(=O)N[C@@H](Cc1c[nH]c2ccccc12)C(=O)O` [Compound 17, HGlyAsnTrpHisGlyThrAlaProAspTrpValTyrPheAlaHisLeuThrThiIleTrpOH] (H-GNWHGTAPDWVYFAHLT[2Thi]IW-OH), the figure is 61.3%; as for H-GNWHGTAPDWVYFAHLSMIW-OH [Compound 21], 40.4%.
